What was measured:
[1] = tested on: MYB-dependent gene expression; test: RNA-seq gene expression after peptide treatment; assay type: cell-based, human
[2] = tested on: H3K27Ac-driven oncogenic enhancers; test: ChIP-seq of H3K27Ac enhancers in AML cells; assay type: cell-based, human
Procedure: Chromatin immunoprecipitation and sequencing (ChIP-seq). Briefly, cells were fixed in 1% formalin in phosphate-buffered saline (PBS) for 10 minutes at room temperature. Glycine (125 mM final concentration) and Tris-HCl pH 8 (100 mM final concentration) was added to the cells and cells were washed twice in ice-cold PBS and resuspended in sodium dodecyl sulfate (SDS) lysis buffer (1% SDS, 10 mM EDTA, 50 mM Tris-HCl, pH 8.1). Lysates were sonicated using the Covaris […] adaptive focused sonicator to obtain 100-500 bp chromatin fragments (Covaris, Woburn, Calif.). Lysates containing sheared chromatin fragments were resuspended in 0.01% SDS, 1.1% Triton-X100, 1.2 mM EDTA, 16.7 mM Tris-HCl, pH 8.1, 167 mM NaCl. Lysates and antibody-coupled beads were incubated over night at 4° C. Precipitates were washed sequentially with Mixed Micelle Wash Buffer (15 ml 5M NaCl-150 mM Final, 10 ml 1M Tris-Cl pH 8.1, 5 ml 0.5M EDTA, pH 8.0, 40 ml 65% w/v sucrose, 1 ml 10% NaN3, 25 ml 20% Triton X-100, 10 ml 10% SDS, Add dH2O to 500 ml), LiCl washing solution (0.5% deoxycholic acid, 1 mM EDTA, 250 mM LiCl, 0.5% NP-40, 10 mM Tris-Cl pH 8.0, 0.2% NaN3) and then TBS buffer (20 mM Tris-Cl pH 7.4, 150 mM NaCl). Elution performed in elution buffer (1% SDS, 0.1 M NaHCO3). […] Libraries were sequenced on the Illumina HiSeq 2500 instruments, with 30 million 2×50 bp paired reads.

[3] = tested on: MYC and BCL2 mRNA expression; test: RT-qPCR of BCL2 and MYC mRNA normalized to GAPDH; assay type: cell-based; conditions: human AML cell lines
Procedure: Quantitative RT-PCR. RNA was isolated using Trizol reagent according to the manufacturer's instructions (Life Technologies). Complementary DNA was synthesized using the SuperScript III First-Strand Synthesis system according to the manufacturer's instructions (Invitrogen). Quantitative real-time PCR was performed using the KAPA SYBR FAST PCR polymerase with 20 ng template and 200 nM primers, according to the manufacturer's instructions (Kapa Biosystems, Wilmington, Mass., USA). PCR primers are listed below. Ct values were calculated using ROX normalization using the ViiA 7 software (Applied Biosystems).

## CC[C@@H](C)[C@@H](NC(=O)[C@@H](CCCCN)NC(=O)[C@@H](CCC(=O)O)NC(=O)[C@@H](CC(C)C)NC(=O)[C@@H](CCC(=O)O)NC(=O)[C@@H](CC(C)C)NC(=O)[C@@H](CC(C)C)NC(=O)[C@@H](CC(C)C)NC(=O)[C@@H](CCSC)NC(=O)[C@@H](CO)NC(=O)[C@H](NC(=O)[C@@H](CCC(=O)O)NC(=O)[C@@H](CC(N)=O)NC(=O)[C@@H](CCC(=O)O)NC(=O)[C@@H](CC(C)C)NC(=O)[C@@H](CCCCN)NC(C)=O)[C@H](C)O)C(=O)N[C@H](CCCNC(=N)N)C(=O)N[C@H](CCCCN)C(=O)NCC(=O)NCC(=O)N[C@H](CCCNC(=N)N)C(=O)N[C@H](CCCNC(=N)N)C(=O)N[C@H](CCCNC(=N)N)C(=O)N[C@H](CCC(N)=O)C(=O)N[C@H](CCCNC(=N)N)C(=O)N[C@H](CCCNC(=N)N)C(=O)N[C@H](CCCCN)C(=O)N[C@H](CCCCN)C(=O)N[C@H](CCCNC(=N)N)C(=O)NCC(=O)N[C@H](Cc1ccc(O)cc1)C(N)=O [MYBMIM]
[1]; MV411 cells, MYBMIM vs control
  MYC and BCL2 expression (volcano plot): significantly downregulated
[1]; human AML cells, 6 hours, 20 μM, vs TG3 and control
  MYB-dependent gene expression (RNA-seq): significant down-regulation
[2]
  H3K27Ac-driven oncogenic enhancers: obliteration
[3]
  MYC and BCL2 mRNA expression as a percentage of GAPDH: downregulation
